In patent US12479843B2, “Spiro ring-containing quinazoline compounds” (WIGEN BIOMEDICINE TECHNOLOGY (SHANGHAI) CO., LTD., priority 2019, dated 2025):

Tests used:
pERK level in H358 cells = assay: pERK and ERK protein content assay in H358 cells (ELISA); type: cell-based; settings: Homo sapiens, NCI-H358, compound 1 μM, 24 h, pERK/ERK ratio compared with DMSO group, read-out: Inhibition rate (%) of pERK level
Procedure: H358 cells were seeded in a 24-well plate. After one day of growth, a test compound (at a concentration of 1 μM) was added. After 24 h of action of the compound, the cells were lysed, and the cell lysate was transferred to a 96-well ELISA plate. The levels of pERK and ERK in the lysate were measured using an ELISA kit (abcam 176660). The ratio of pERK to ERK was calculated and compared with that of the DMSO group, and the percentage of inhibition of pERK activity by the compound was calculated.

H358 cells = assay: Antiproliferative activity against H358 cells (Cell Titer Glow, ultra-low attachment plate); type: cell-based; settings: Homo sapiens, NCI-H358, 72 h, 96-well ultra-low attachment plate, three days after addition of compound, Cell Titer Glow
Procedure: 2500 H358 cells were seeded in a 96-well ultra-low attachment plate (corning, 7007). After one day of growth, a serially diluted compound (a maximum concentration of 5 μM, 5-fold dilution, a total of five doses) was added. Three days after the addition of the compound, Cell Titer Glow (Promega, G9681) was added to evaluate pellet growth, and the IC50 value was calculated.

IC50 (H358 cells) | SMILES | inhibition at 1 µM (pERK level in H358 cells)
< 300 nM | C=CC(=O)N1CC2(CCN(c3nc(OC4CCN(CCOC)CC4)nc4c(OCC(F)(F)F)c(-c5ccccc5C(F)(F)F)c(C5CC5)cc34)CC2)C1 [Compound 55] | > 90%
< 300 nM | C=CC(=O)N1CC2(CCN(c3nc(OC4CCN(CCOC)CC4)nc4c(OCC(F)(F)F)c(-c5ccc(F)cc5F)c(C5CC5)cc34)CC2)C1 [Compound 56] | > 90%
< 300 nM | C=CC(=O)N1CC2(CCN(c3nc(OC4CCN(CCOC)CC4)nc4c(OCC(F)(F)F)c(-c5cc(O)ccc5F)c(C5CC5)cc34)CC2)C1 [Compound 57] | > 90%
< 300 nM | C=CC(=O)N1CC2(CCN(c3nc(OC4CCN(CCOC)CC4)nc4c(OCC(F)(F)F)c(-c5cc(O)ccc5Cl)c(C5CC5)cc34)CC2)C1 [Compound 58] | > 90%
< 300 nM | C=CC(=O)N1CC2(CCN(c3nc(OC4CCN(CCOC)CC4)nc4c(OCC(F)(F)F)c(-c5c(O)ccc6ccccc56)c(C5CC5)cc34)CC2)C1 [Compound 59] | > 90%
< 300 nM | C=CC(=O)N1CC2(CCN(c3nc(OC4CCN(CCOC)CC4)nc4c(OCC(F)(F)F)c(-c5cc(O)cc6ccccc56)c(C5CC5)cc34)CC2)C1 [Compound 60] | > 90%
< 300 nM | C=C(F)C(=O)N1CC2(CCN(c3nc(OC4CCN(C)CC4)nc4c(OCC(F)(F)F)c(-c5c(C)ccc6[nH]ncc56)c(C5CC5)cc34)CC2)C1 [Compound 61] | > 90%
< 300 nM | C=C(F)C(=O)N1CC2(CCN(c3nc(OC4CCN(C5COC5)CC4)nc4c(OCC(F)(F)F)c(-c5c(C)ccc6[nH]ncc56)c(C5CC5)cc34)CC2)C1 [Compound 62] | > 90%
< 300 nM | C=C(F)C(=O)N1CC2(CCN(c3nc(OC4CCN(CCCOC)CC4)nc4c(OCC(F)(F)F)c(-c5c(C)ccc6[nH]ncc56)c(C5CC5)cc34)CC2)C1 [Compound 63] | > 90%
300 to 1000 nM | C=C(F)C(=O)N1CC2(CCN(c3nc(O[C@H]4CCN(C)C4)nc4c(OCC(F)(F)F)c(-c5c(C)ccc6[nH]ncc56)c(C5CC5)cc34)CC2)C1 [Compound 64] | 50 to 90%
< 300 nM | C=C(F)C(=O)N1CC2(CCN(c3nc(O[C@H]4CCN(CCOC)C4)nc4c(OCC(F)(F)F)c(-c5c(C)ccc6[nH]ncc56)c(C5CC5)cc34)CC2)C1 [Compound 65] | > 90%
300 to 1000 nM | C=C(F)C(=O)N1CC2(CCN(c3nc(O[C@H]4CCN(C5COC5)C4)nc4c(OCC(F)(F)F)c(-c5c(C)ccc6[nH]ncc56)c(C5CC5)cc34)CC2)C1 [Compound 66] | 50 to 90%
300 to 1000 nM | C=CC(=O)N1CC2(CCN(c3nc(N4CC5(COC5)C4)nc4c(OCC(F)(F)F)c(-c5c(C)ccc6[nH]ncc56)c(C5CC5)cc34)CC2)C1 [Compound 67] | 50 to 90%
300 to 1000 nM | C=C(F)C(=O)N1CC2(CCN(c3nc(N4CC5(COC5)C4)nc4c(OCC(F)(F)F)c(-c5c(C)ccc6[nH]ncc56)c(C5CC5)cc34)CC2)C1 [Compound 68] | 50 to 90%
< 300 nM | C=CC(=O)N1CC2(CCN(c3nc(N4CC5(CN(C)C5)C4)nc4c(OCC(F)(F)F)c(-c5c(C)ccc6[nH]ncc56)c(C5CC5)cc34)CC2)C1 [Compound 69] | > 90%
300 to 1000 nM | C=C(F)C(=O)N1CC2(CCN(c3nc(N4CC5(CN(C)C5)C4)nc4c(OCC(F)(F)F)c(-c5c(C)ccc6[nH]ncc56)c(C5CC5)cc34)CC2)C1 [Compound 70] | > 90%

IC50 (H358 cells) | SMILES | inhibition at 1 µM (pERK level in H358 cells)
< 300 nM | C=CC(=O)N1CC2(CCN(c3nc(N4CC5(CN(CCOC)C5)C4)nc4c(OCC(F)(F)F)c(-c5c(C)ccc6[nH]ncc56)c(C5CC5)cc34)CC2)C1 [Compound 71] | > 90%
< 300 nM | C=C(F)C(=O)N1CC2(CCN(c3nc(N4CC5(CN(CCOC)C5)C4)nc4c(OCC(F)(F)F)c(-c5c(C)ccc6[nH]ncc56)c(C5CC5)cc34)CC2)C1 [Compound 72] | > 90%
< 300 nM | C=CC(=O)N1CC2(CCN(c3nc(N4CC5(CCN(C)C5)C4)nc4c(OCC(F)(F)F)c(-c5c(C)ccc6[nH]ncc56)c(C5CC5)cc34)CC2)C1 [Compound 73] | > 90%
< 300 nM | C=C(F)C(=O)N1CC2(CCN(c3nc(N4CC5(CCN(C)C5)C4)nc4c(OCC(F)(F)F)c(-c5c(C)ccc6[nH]ncc56)c(C5CC5)cc34)CC2)C1 [Compound 74] | > 90%
< 300 nM | C=CC(=O)N1CC2(CCN(c3nc(N4CC5(CCN(CCOC)C5)C4)nc4c(OCC(F)(F)F)c(-c5c(C)ccc6[nH]ncc56)c(C5CC5)cc34)CC2)C1 [Compound 75] | > 90%
< 300 nM | C=C(F)C(=O)N1CC2(CCN(c3nc(N4CC5(CCN(CCOC)C5)C4)nc4c(OCC(F)(F)F)c(-c5c(C)ccc6[nH]ncc56)c(C5CC5)cc34)CC2)C1 [Compound 76] | > 90%
300 to 1000 nM | C=CC(=O)N1CC2(CCN(c3nc(N4CC5(CCN(C)CC5)C4)nc4c(OCC(F)(F)F)c(-c5c(C)ccc6[nH]ncc56)c(C5CC5)cc34)CC2)C1 [Compound 77] | 50 to 90%
300 to 1000 nM | C=C(F)C(=O)N1CC2(CCN(c3nc(N4CC5(CCN(C)CC5)C4)nc4c(OCC(F)(F)F)c(-c5c(C)ccc6[nH]ncc56)c(C5CC5)cc34)CC2)C1 [Compound 78] | 50 to 90%
300 to 1000 nM | C=CC(=O)N1CC2(CCN(c3nc(N4CC5(CCN(C6CC6)CC5)C4)nc4c(OCC(F)(F)F)c(-c5c(C)ccc6[nH]ncc56)c(C5CC5)cc34)CC2)C1 [Compound 79] | 50 to 90%
300 to 1000 nM | C=C(F)C(=O)N1CC2(CCN(c3nc(N4CC5(CCN(C6CC6)CC5)C4)nc4c(OCC(F)(F)F)c(-c5c(C)ccc6[nH]ncc56)c(C5CC5)cc34)CC2)C1 [Compound 80] | 50 to 90%
< 300 nM | C=CC(=O)N1CC2(CCN(c3nc(N4CC5(CCN(CC(C)CC)CC5)C4)nc4c(OCC(F)(F)F)c(-c5c(C)ccc6[nH]ncc56)c(C5CC5)cc34)CC2)C1 (stereo not shown) [Compound 81] | > 90%
< 300 nM | C=C(F)C(=O)N1CC2(CCN(c3nc(N4CC5(CCN(CC(C)CC)CC5)C4)nc4c(OCC(F)(F)F)c(-c5c(C)ccc6[nH]ncc56)c(C5CC5)cc34)CC2)C1 (stereo not shown) [Compound 82] | > 90%
< 300 nM | C=CC(=O)N1CC2(CCN(c3nc(N4CC5(CCN(CC6CC6)CC5)C4)nc4c(OCC(F)(F)F)c(-c5c(C)ccc6[nH]ncc56)c(C5CC5)cc34)CC2)C1 [Compound 83] | > 90%
< 300 nM | C=C(F)C(=O)N1CC2(CCN(c3nc(N4CC5(CCN(CC6CC6)CC5)C4)nc4c(OCC(F)(F)F)c(-c5c(C)ccc6[nH]ncc56)c(C5CC5)cc34)CC2)C1 [Compound 84] | > 90%
300 to 1000 nM | C=CC(=O)N1CC2(CCN(c3nc(N4CC5(CCN(CC(F)(F)F)CC5)C4)nc4c(OCC(F)(F)F)c(-c5c(C)ccc6[nH]ncc56)c(C5CC5)cc34)CC2)C1 [Compound 85] | > 90%
300 to 1000 nM | C=C(F)C(=O)N1CC2(CCN(c3nc(N4CC5(CCN(CC(F)(F)F)CC5)C4)nc4c(OCC(F)(F)F)c(-c5c(C)ccc6[nH]ncc56)c(C5CC5)cc34)CC2)C1 [Compound 86] | 50 to 90%
